Results as given in patent US8119635B2, “Diazabicyclic central nervous system active agents” (Abbott Laboratories, priority 2000, dated 2012).
pKi: −log10 of the molar value. Structures can show the parent of a compound that is named as a salt.

Columns and labels:
mice = assay: Mouse hot plate paradigm (analgesia); assay type: in vivo; settings: ip, 0.5 h, intraperitoneal, dosed 30 minutes prior to testing, hot plate 55° C., latency until the tenth jump, read-out: (MED) minimally effective dose, mouse hot plate
Protocol: An in vivo protocol was utilized to determine the effectiveness of nicotinic acetylcholine receptor ligands as analgesic agents in the mouse hot plate paradigm.
Separate groups of mice, (n=8/group) were utilized for each dose group. All drugs were administered by the intraperitoneal route of administration. Test drugs were dissolved in water to make a 6.2 mM stock solution. Animals were dosed with this solution (10 mL/kg body weight) for a 62 micromol/kg dose. Lower doses were administered similarly, following serial dilution of the stock solution in half-log increments. Animals were dosed 30 minutes prior to testing in the hot plate. The hot-plate utilized was an automated analgesia monitor (Model #AHP16AN, Omnitech Electronics, Inc. of Columbus, Ohio). The temperature of the hot plate was maintained at 55° C. and a cut-off time of 180 seconds was utilized. Latency until the tenth jump was recorded as the dependent measure. An increase in the tenth jump latency relative to the control was considered an effect.

[1] = target: T1, neuronal nicotinic acetylcholine receptors (Rattus norvegicus, UniProt P09483+P12390); assay: Binding of [3H]-cytisine to neuronal nicotinic acetylcholine receptors, crude synaptic membranes from whole rat brain
T1 construct: crude synaptic membrane preparations from whole rat brain; from tissue; host or cells: whole rat brain, crude synaptic membranes

Male Sprague-Dawley rats = assay: Formalin test (analgesia); assay type: in vivo; settings: Rattus norvegicus, ip, intraperitoneally 5 minutes before injection of 50 μL 5% formalin into rear paw, nocifensive behaviors, read-out: (MED) minimally effective dose, formalin test
Protocol: Another in vivo protocol utilized to determine the effectiveness of nicotinic acetylcholine receptor ligands as analgesic agents was the formalin test.
Male Sprague-Dawley rats (Charles River, Portage, Mich.) weighing 200 to 400 grams were used for all experiments. After a 20 minute period of acclimation to individual cages, 50 μL of a 5% formalin solution was injected subcutaneous into the dorsal aspect of one of the rear paws and the rats were then returned to the clear observation cages suspended above mirror panels. […] Phase 1 of the formalin test was defined as the period of time immediately after injection of formalin until 10 minutes after the formalin injection (i.e., 0-10 minutes after formalin). Phase 2 was defined as the 20 minute period from 30 to 50 minutes after formalin injection. The investigator recorded nocifensive behaviors in the injected paw of four animals during the session by observing each animal for one 15 second observation period during each 1 minute interval. Nocifensive behaviors recorded included flinching, licking or biting the injected paw. In dose-response studies, the test compound (or saline) was administered intraperitoneally 5 minutes before injection of formalin.

T1 sequence (P09483 31-630): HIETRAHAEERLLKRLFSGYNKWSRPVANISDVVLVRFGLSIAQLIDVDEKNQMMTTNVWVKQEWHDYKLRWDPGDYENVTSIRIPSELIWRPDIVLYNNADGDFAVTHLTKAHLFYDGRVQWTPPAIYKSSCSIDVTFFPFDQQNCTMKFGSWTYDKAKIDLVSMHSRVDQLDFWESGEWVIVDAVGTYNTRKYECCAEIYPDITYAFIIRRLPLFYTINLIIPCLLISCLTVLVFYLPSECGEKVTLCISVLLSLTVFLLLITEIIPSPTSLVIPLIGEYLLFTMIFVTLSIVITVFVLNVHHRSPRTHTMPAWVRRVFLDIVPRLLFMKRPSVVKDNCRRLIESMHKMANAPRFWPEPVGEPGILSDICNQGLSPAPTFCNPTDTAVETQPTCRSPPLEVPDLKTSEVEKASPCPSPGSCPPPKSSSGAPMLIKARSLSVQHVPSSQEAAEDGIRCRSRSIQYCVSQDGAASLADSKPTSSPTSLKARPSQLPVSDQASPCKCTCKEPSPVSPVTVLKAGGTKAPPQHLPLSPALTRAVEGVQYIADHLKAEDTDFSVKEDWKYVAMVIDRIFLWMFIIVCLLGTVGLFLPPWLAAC
T1 sequence (P12390 25-500): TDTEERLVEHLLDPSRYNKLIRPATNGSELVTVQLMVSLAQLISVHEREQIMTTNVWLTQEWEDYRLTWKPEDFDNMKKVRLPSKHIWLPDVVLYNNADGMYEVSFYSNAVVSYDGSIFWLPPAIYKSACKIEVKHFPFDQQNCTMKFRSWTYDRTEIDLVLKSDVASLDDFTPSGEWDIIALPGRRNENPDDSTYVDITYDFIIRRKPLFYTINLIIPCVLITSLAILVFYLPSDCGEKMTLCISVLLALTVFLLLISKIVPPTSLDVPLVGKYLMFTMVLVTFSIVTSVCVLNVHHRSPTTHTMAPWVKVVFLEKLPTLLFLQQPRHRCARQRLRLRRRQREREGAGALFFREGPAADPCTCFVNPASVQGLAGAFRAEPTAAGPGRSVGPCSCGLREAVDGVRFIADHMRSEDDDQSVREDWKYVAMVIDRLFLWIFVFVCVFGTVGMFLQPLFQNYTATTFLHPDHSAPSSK

SMILES | minimal effective dose (mice) | melting point | pKi [1] | minimal effective dose (Male Sprague-Dawley rats)
Cl.Clc1ccc(N2C[C@H]3CNC[C@H]3C2)cn1 [Example 3, cis-2-(6-chloro-3-pyridinyl)octahydropyrrolo[3,4-c]pyrrole hydrochloride] | 6.2 µmol/kg | 230 to 236 °C (dec.) | 9.70 | 
Cl.Cl.c1cncc(N2C[C@H]3CNC[C@H]3C2)c1 [Example 1, cis-2-(3-pyridinyl)octahydropyrrolo[3,4-c]pyrrole dihydrochloride] | 19 µmol/kg | 250 to 252 °C (dec.) | 9.92 | 0.62 µmol/kg
CN1C[C@@H]2CN(c3cccnc3)C[C@@H]2C1.Cl [Example 2, cis-2-methyl-5-(3-pyridinyl)octahydropyrrolo[3,4-c]pyrrole hydrochloride] |  | 207 to 209 °C | 7.59 | 
CCOc1cncc(N2C[C@H]3CNC[C@H]3C2)c1 [Example 8, cis-2-(5-ethoxy-3-pyridinyl)octahydropyrrolo[3,4-c]pyrrole dihydrochloride] | 6.2 µmol/kg | 226 to 227 °C | 10.40 | 
c1cncc(N2C[C@H]3CCCN[C@H]3C2)c1 (relative stereo) [Example 23, cis-6-(3-pyridinyl)octahydro-1H-pyrrolo[3,4-b]pyridine dihydrochloride] | 62 µmol/kg |  | 8.39 | 0.62 µmol/kg
Cl.Cl.FC(F)(F)COc1cncc(N2C[C@H]3CNC[C@H]3C2)c1 [Example 12, cis-2-[5-(2,2,2-trifluoroethoxy)-3-pyridinyl]octahydropyrrolo[3,4-c]pyrrole dihydrochloride] | 62 µmol/kg | 233 to 234 °C (dec.) | 10.30 | 
Clc1ccc(N2C[C@@H]3CCN[C@@H]3C2)cn1 [Example 15, (3aS,6aS)-5-(6-chloro-3-pyridinyl)octahydropyrrolo[3,4-b]pyrrole dihydrochloride] | 19 µmol/kg |  | 8.20 | > 6.2 µmol/kg
Cl.Cl.c1ccc2ncc(N3C[C@H]4CNC[C@H]4C3)cc2c1 [Example 5, cis-2-(3-quinolinyl)octahydropyrrolo[3,4-c]pyrrole dihydrochloride] |  | > 260 °C | 8.77 | 
